ChEMBL document CHEMBL5030563, “Structure-Based Design of Dual-Acting Compounds Targeting Adenosine A2A Receptor and Histone Deacetylase as Novel Tumor Immunotherapeutic Agents” (J Med Chem, 2021)

Assays:
[1] = target: T1, Adenosine receptor A3 (Homo sapiens, UniProt P0DMS8); assay: Displacement of [3H]DPCPX from human adenosine A3 receptor membrane (unknown origin) measured after 60 mins by scintillation counting analysis; assay type: cell membranes
T1 sequence (P0DMS8 whole entry): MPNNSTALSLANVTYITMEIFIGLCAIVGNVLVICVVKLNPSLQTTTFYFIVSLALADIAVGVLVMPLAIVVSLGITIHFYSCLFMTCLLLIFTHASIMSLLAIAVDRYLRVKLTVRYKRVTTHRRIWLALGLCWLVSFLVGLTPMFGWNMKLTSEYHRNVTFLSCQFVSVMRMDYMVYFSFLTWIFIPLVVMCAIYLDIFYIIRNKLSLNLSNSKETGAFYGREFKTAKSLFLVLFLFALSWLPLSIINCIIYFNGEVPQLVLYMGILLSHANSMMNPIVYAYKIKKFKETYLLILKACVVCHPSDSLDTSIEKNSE

[2] = test system: CT26; assay: Antiproliferative activity against mouse CT26 cells measured after 72 hrs by CCK8 assay; assay type: functional; settings: Mus musculus, CT26
[3] = test system: MC-38; assay: Antiproliferative activity against mouse MC38 cells measured after 72 hrs by CCK8 assay; assay type: functional; settings: Mus musculus, MC-38
[4] = target: Histone deacetylase 1 (Homo sapiens, UniProt Q13547); assay: Inhibition of HDAC1 (unknown origin) assessed as release of 7-amino-4-methylcoumarin incubated in room temperature for 15 min measured by Spectra max microtitre plate reader
[5] = target: T2, Protein deacetylase HDAC6 (Homo sapiens, UniProt Q9UBN7); assay: Inhibition of HDAC6 (unknown origin) assessed as release of 7-amino-4-methylcoumarin incubated in room temperature for 15 min measured by Spectra max microtitre plate reader
T2 sequence (Q9UBN7 whole entry): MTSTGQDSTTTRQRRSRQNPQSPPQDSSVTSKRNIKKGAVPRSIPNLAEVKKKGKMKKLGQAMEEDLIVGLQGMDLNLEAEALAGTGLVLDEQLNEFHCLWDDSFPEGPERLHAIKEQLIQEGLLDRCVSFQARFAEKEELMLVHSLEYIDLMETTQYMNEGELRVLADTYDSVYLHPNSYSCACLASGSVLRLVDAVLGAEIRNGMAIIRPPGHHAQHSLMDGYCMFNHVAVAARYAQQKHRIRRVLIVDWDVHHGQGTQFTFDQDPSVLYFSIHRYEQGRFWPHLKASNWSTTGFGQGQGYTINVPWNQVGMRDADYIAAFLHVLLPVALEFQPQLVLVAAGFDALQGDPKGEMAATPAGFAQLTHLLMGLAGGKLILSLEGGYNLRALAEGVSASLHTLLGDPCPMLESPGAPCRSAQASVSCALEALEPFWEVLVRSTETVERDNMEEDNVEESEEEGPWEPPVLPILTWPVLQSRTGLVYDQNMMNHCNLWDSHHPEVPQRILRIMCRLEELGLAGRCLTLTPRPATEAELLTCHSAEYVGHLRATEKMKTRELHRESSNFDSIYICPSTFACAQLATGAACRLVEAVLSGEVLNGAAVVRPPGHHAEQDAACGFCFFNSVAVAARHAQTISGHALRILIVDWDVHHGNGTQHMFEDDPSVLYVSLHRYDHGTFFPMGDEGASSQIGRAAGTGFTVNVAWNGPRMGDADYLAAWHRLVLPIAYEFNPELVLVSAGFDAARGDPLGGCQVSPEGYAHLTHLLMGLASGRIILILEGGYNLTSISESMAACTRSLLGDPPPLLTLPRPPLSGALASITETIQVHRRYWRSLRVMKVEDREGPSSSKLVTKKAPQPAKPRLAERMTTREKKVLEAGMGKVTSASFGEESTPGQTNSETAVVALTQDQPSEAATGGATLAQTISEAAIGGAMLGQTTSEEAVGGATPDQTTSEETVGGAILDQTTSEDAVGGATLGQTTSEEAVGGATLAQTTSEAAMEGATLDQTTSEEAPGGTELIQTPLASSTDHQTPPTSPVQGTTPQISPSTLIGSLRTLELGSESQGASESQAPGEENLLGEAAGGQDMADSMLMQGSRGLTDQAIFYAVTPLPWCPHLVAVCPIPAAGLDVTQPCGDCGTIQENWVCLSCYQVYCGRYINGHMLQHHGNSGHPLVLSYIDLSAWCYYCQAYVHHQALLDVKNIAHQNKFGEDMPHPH

[6] = target: Adenosine receptor A2a (Homo sapiens, UniProt P29274); assay: Displacement of [3H]SCH58261 from adenosine A2A receptor membrane (unknown origin) measured after 60 mins by scintillation counting analysis; assay type: cell membranes
[7] = MRT in ICR mouse at 20 mg/kg, po by LC-MS/MS analysis; assay type: ADME, organism-based; settings: in vivo
[8] = AUC (0 to infinity) in ICR mouse at 20 mg/kg, po by LC-MS/MS analysis; assay type: ADME, organism-based; design: time infinity, route oral, dose 20 mg/kg; settings: in vivo
[9] = AUC (0 to t) in ICR mouse at 20 mg/kg, po by LC-MS/MS analysis; assay type: ADME, organism-based; design: dose 20 mg/kg; settings: in vivo
[10] = Cmax in ICR mouse at 20 mg/kg, po by LC-MS/MS analysis; assay type: ADME, organism-based; design: route oral, dose 20 mg/kg; settings: in vivo
[11] = Tmax in ICR mouse at 20 mg/kg, po by LC-MS/MS analysis; assay type: ADME, organism-based; settings: in vivo
[12] = Half life in ICR mouse at 20 mg/kg, po by LC-MS/MS analysis; assay type: ADME, organism-based; settings: in vivo
[13] = Elimination rate constant in ICR mouse at 20 mg/kg, po up to 24 hrs by LC-MS/MS analysis; assay type: ADME, organism-based; settings: in vivo

Adenosine receptor A2a, sequence (P29274 whole entry): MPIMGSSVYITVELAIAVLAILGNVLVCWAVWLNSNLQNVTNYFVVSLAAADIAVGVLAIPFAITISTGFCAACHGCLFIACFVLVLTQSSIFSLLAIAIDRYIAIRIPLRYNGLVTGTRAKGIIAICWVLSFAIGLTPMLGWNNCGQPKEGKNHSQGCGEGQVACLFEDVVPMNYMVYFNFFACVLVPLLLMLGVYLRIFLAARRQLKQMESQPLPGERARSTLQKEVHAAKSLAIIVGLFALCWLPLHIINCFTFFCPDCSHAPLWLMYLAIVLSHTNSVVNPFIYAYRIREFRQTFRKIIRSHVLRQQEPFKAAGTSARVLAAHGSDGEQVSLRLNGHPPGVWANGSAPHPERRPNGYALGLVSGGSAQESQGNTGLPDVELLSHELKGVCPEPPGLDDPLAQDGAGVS
Histone deacetylase 1, sequence (Q13547 whole entry): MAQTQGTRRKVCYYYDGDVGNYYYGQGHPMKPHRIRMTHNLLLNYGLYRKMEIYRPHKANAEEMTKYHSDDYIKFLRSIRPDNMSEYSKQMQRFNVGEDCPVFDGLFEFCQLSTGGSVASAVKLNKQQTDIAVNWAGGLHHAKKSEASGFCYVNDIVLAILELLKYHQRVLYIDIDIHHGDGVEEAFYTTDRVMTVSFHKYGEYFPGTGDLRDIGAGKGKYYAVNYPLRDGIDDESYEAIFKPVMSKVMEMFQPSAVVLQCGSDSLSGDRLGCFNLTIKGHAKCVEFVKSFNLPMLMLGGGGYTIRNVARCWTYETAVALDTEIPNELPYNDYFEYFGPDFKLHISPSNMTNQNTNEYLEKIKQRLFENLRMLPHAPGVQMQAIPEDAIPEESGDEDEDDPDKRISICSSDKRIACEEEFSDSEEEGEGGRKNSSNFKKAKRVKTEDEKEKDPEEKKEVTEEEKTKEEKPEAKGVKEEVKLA

SMILES	Ki [1]	GI50 [2]	GI50 [3]	IC50 [4]	IC50 [5]	Ki [6]	MRT [7]	AUC(0-inf) [8]	AUC(0-t) [9]	Cmax [10]	Tmax [11]	half-life [12]	k el at 24 h [13]
Nc1nc2c(cnn2CCc2ccccc2)c2nc(-c3ccco3)nn12 [SCH-58261]	> 10000 nM	> 100000 nM	> 100000 nM	–	–	–	–	–	–	–	–	–	–
CN(CCOc1ccc(C(=O)NO)cc1)c1nc(N)n2nc(-c3ccco3)nc2n1	–	> 100000 nM	> 100000 nM	21.5 nM	18 nM	15.7 nM	–	–	–	–	–	–	–
Nc1nc(NCCc2ccc(C(=O)NO)cc2)nc2nc(-c3ccco3)nn12	–	> 100000 nM	> 100000 nM	104 nM	14.8 nM	6.3 nM	–	–	–	–	–	–	–
Nc1nc2c(cnn2CCc2ccc(C(=O)NO)cc2)c2nc(-c3ccco3)nn12	–	100000 nM	100000 nM	138 nM	7.6 nM	4.3 nM	–	–	–	–	–	–	–
Nc1nc(N2CCN(CCc3ccc(C(=O)NO)cc3)CC2)nc2nc(-c3ccco3)nn12	–	> 100000 nM	> 100000 nM	220 nM	19 nM	4.2 nM	–	–	–	–	–	–	–
Nc1nc(NCCc2ccc(NC(=O)CCCCCCC(=O)NO)cc2)nc2nc(-c3ccco3)nn12	–	> 100000 nM	> 100000 nM	11.5 nM	5.9 nM	11.3 nM	–	–	–	–	–	–	–
Nc1ccccc1NC(=O)c1ccc(CCCNc2nc(N)n3nc(-c4ccco4)nc3n2)cc1	–	25200 nM	25400 nM	59.5 nM	> 10000 nM	3.9 nM	–	–	–	–	–	–	–
Nc1nc2c(cnn2CCN2CCC(c3ccc(C(=O)NO)cc3)CC2)c2nc(-c3ccco3)nn12	–	11900 nM	16900 nM	84 nM	32 nM	3.7 nM	–	–	–	–	–	–	–
Nc1nc(NCCc2ccc(/C=C/C(=O)NO)cc2)nc2nc(-c3ccco3)nn12	–	42900 nM	40500 nM	10.2 nM	69 nM	37.8 nM	–	–	–	–	–	–	–
Nc1ccccc1NC(=O)c1ccc(CNc2nc(N)n3nc(-c4ccco4)nc3n2)cc1	–	16500 nM	14100 nM	65.7 nM	> 10000 nM	34.8 nM	–	–	–	–	–	–	–
N#Cc1cccc(-c2nc3c4cnn(CCc5ccc(C(=O)Nc6ccccc6N)cc5)c4nc(N)n3n2)c1	–	6900 nM	5400 nM	113 nM	–	6.5 nM	2.44 h	602 ng·h/mL	588 ng·h/mL	598 ng/mL	0.25 h	4.08 h	5.67e-05 s⁻¹
Nc1nc2c(cnn2CCCCCC(=O)NO)c2nc(-c3ccco3)nn12	–	17800 nM	14000 nM	27 nM	15 nM	77.8 nM	–	–	–	–	–	–	–
Nc1ccccc1NC(=O)c1ccc(OCCNc2nc(N)n3nc(-c4ccco4)nc3n2)cc1	–	32400 nM	36900 nM	68.5 nM	> 10000 nM	4.9 nM	–	–	–	–	–	–	–
Nc1nc(NCCCCCCC(=O)NO)nc2nc(-c3ccco3)nn12	–	31600 nM	35700 nM	7.7 nM	10.6 nM	21.2 nM	–	–	–	–	–	–	–
Nc1nc2c(cnn2CCc2ccc(NC(=O)CCCCCCC(=O)NO)cc2)c2nc(-c3ccco3)nn12	–	> 100000 nM	> 100000 nM	8 nM	5.9 nM	4.9 nM	–	–	–	–	–	–	–
CN(CCc1ccc(C(=O)NO)cc1)c1nc(N)n2nc(-c3ccco3)nc2n1	–	75100 nM	69200 nM	159 nM	17.4 nM	4.4 nM	–	–	–	–	–	–	–
Nc1nc(NCCc2ccc(OCCCCCC(=O)NO)cc2)nc2nc(-c3ccco3)nn12	–	25900 nM	15000 nM	86.7 nM	8 nM	0.95 nM	–	–	–	–	–	–	–
